Like-named read-outs stand apart in the source and are kept apart here.
How the values were obtained:
[1] = test system: HCT116 colon carcinoma cells; assay: Antiproliferative activity against HCT116 colon carcinoma cells (nuclei count); assay type: cell-based, human; details: Homo sapiens, HCT-116; colon carcinoma cells, 5 nM-90 microM, nuclei count; read-out: HCT116 IC50
Description: (§1) For examination of cell line-specific cytotoxicity, compounds were applied to human colorectal cancer cells (HCT116, denoted (1); SW480, denoted (2); Dld-1, denoted (3)) and human fibroblasts (HS-68, denoted (4)), cultured in Mc Coy's ((1)) and Dulbecco's Modified Eagles Medium ((2)-(4)), supplemented with 10% ((1)-(3)) and 20% ((4)) fetal calf serum and 1% penicillin/streptomycin. Cells were grown in T75 flasks at 37° C., 5% CO2 and trypsinized when 60-80% confluent by adding 2 ml of 0.25% Trypsin-EDTA (ethylenediaminetetraacetic acid) solution. Cells were then re-suspended into culture medium yielding approx. 750 cells, suspended in 45 microl medium, were plated into each well of a black 384-well plate for fluorescence imaging experiments. 24-36 hr later 5 microl compound solution (100 microM compound dissolved in ultra pure water containing 1% DMSO (dimethylsulfoxide)), were added to achieve a final concentration of 10 microM and were incubated for at least 72 hr. Compound incubation was terminated by (a) fixation and (b) permeabilisation of cells, followed by (c) fluorescence labeling of cell nuclei for cytometric quantification or by immunocytochemistry for microscopic evaluation of cell morphology. […] Solutions were incubated for 15 (a,b) and 30 min (c) in the dark at room temperature. Cells were washed twice between each step with 30 microl PBS. The assay system was miniaturized and adapted to automated workflow using liquid-handling robotics.
(§2) Cell line-specific cytotoxicity was quantified by counting the number of Hoechst labeled nuclei per well of a 384-well plate using a plate cytometer. Data obtained with the cytometer was analysed using standard data analysis software.
(§3) The examination of the antiproliferative activity against human colon carcinoma cells Dld1, HCT116 and SW480 was carried out in analogy to the procedure carried out for HS68. The respective compound applied in increasing concentrations yielding final concentrations per well of 5 nM-90 microM.

[2] = test system: SW480 colon carcinoma cells; assay: Antiproliferative activity against SW480 colon carcinoma cells (nuclei count); assay type: cell-based; details: Homo sapiens, 5 nM-90 microM
Description: as §1, §2, §3

[3] = Cytotoxicity in Hek293T (CellTiterGlo); assay type: cell-based; details: human, Hek293T cells, 24 h after compound addition, 5 nM-100 microM, read-out: Hek293T IC50 (cytotoxic activity)
Description: (§4) For examination of cytotoxicity in these cancer cell lines the commercial available CellTiterGlo® Reagent (Promega, USA) was used according to the manufactor. Compounds were applied to Hek293T (denoted (a)) or HepG2 (denoted (b)), cultured in Dulbecco's Modified Eagles Medium, supplemented with 10% fetal calf serum and 1% penicillin/streptomycin. Cells were grown in T75 flasks at 37° C., 5% CO2 and trypsinized when 60-80% confluent by adding 2 ml of 0.25% Trypsin-EDTA solution. Cells were then re-suspended into culture medium yielding approx. 4000 cells (a) or 4500 cells (b), suspended in 30 microl medium. 48 h after cell seeding, compounds were added to yield the desired final concentrations. 24 h after compound addition cytotoxicity was evaluated. For this purpose the media was removed and CellTiterGlo® was added according to the manufactors manual. In this assay the luciferase emission readout is directly correlated with the cellular amount of ATP, low luciferase emission thus is reflecting cytotoxicity of a compound.

[4] = test system: Dld1 colon carcinoma cells; assay: Antiproliferative activity against Dld1 colon carcinoma cells (nuclei count); assay type: cell-based, human; details: Homo sapiens, DLD-1; colon carcinoma cells, 5 nM-90 microM, nuclei count; read-out: Dld1 IC50
Description: as §1, §2, §3

Wnt pathway (Wnt1/Frzd8) = assay: Wnt signaling pathway reporter gene assay (6xTCF-luciferase, Wnt1/Frizzled 8/LRP6 stimulated Hek293T cells); assay type: cell-based, mouse (Wnt1, human (LRP6); details: Homo sapiens, HEK-293T, Hek293T, 6xTCF-luciferase reporter, 24 h incubation, 5 nM-100 microM, read-out: Wnt1/Frzd8 IC50 (Wnt pathway inhibitory activity)
Description: To screen for small-molecule modulators of the Wnt signaling pathway, a reporter gene based assay describing the modulation of the TCF4 transcription factor was used. […]

[5] = Cytotoxicity in HepG2 (CellTiterGlo); assay type: cell-based; details: human, HepG2 cells, 24 h after compound addition, 5 nM-100 microM, read-out: HepG2 IC50 (cytotoxic activity)
Description: as §4

[6] = test system: human fibroblasts (HS-68); assay: Cell line specific cytotoxicity, normal cells HS68 (nuclei count); assay type: cell-based; details: at least 72 hr incubation, Hoechst nuclei count, read-out: HS68 IC50 (influence on normal cells)
Description: as §1, §2
Identified hits were further evaluated by visual inspection of fluorescence micrographs obtained from imaging using a conventional fluorescence microscope.

SMILES	IC50 [1] [nM]	IC50 [2] [nM]	IC50 at 24 h [3] [nM]	IC50 [4] [nM]	IC50 (Wnt pathway (Wnt1/Frzd8)) [nM]	IC50 at 24 h [5] [nM]	IC50 [6] [nM]	IC50 (Wnt pathway (Wnt1/Frzd8); 24 h) [nM]
C=CCOc1c(Br)cc(C2C(C#N)=C(N)Oc3cc4c(cc32)OCO4)cc1OC (centres unmarked) [(41), 8-(4-Allyloxy-3-bromo-5-methoxy-phenyl)-6-amino-8H-[1,3]dioxolo[4,5-g]chromene-7-carbonitrile]	551	618	> 90000	470	45	> 90000	641	–
C=CCOc1c(Br)cc(C2C(C(=O)OCC)=C(N)Oc3cc4c(cc32)OCO4)cc1OC (centres unmarked) [(42), 8-(4-Allyloxy-3-bromo-5-methoxy-phenyl)-6-amino-8H-[1,3]dioxolo[4,5-g]chromene-7-carboxylic acid ethyl ester]	250	343	> 90000	293	–	> 90000	469	55

From patent US20130296344A1, “CHROMENE DERIVATIVES AND THEIR ANALOGA AS WNT PATHWAY ANTAGONISTS” (Ruprecht-Karls-Universitat Heidelberg, priority 2010, published 2013)
